The test system of test [1] is T47D^WT cells. Kind of test: Nuclear-targeted luciferase reporter of nuclear ATP production after R5020 stimulation. It counts as cell-based. The conditions noted are these: hormone-starved T47D^WT cells, compound for two hours, then R5020; Compound 19 at 1.5 μM, Compounds 16/17 at 15 μM. The procedure: Top, a representative measurement of bioluminescence intensity over 60 minutes of R5020 treatment; bottom, box-and-whisker plots of bioluminescence quantitations from six independent experiments (center line, median; box limits, upper and lower quartiles; whiskers, minima and maxima; individual data points also shown). ns—not significant, *—p<0.05, **—p<0.01, ***—p<0.001; repeated measures two-way ANOVA analysis.
In HR+ breast cancer cells, NUDT5 activity is required to produce ATP in the nucleus following hormone stimulation (Wright, R. H. G. et al., Science, 352, 1221-1225 (2016)). A nuclear-targeted luciferase reporter system was employed to monitor ATP production after hormone stimulation.
Hormone-starved T47D^WT cells were treated with example compounds as described herein for two hours and then stimulated with the progesterone receptor agonist, R5020, for the time points indicated.

Test [2] has as its target recombinant human NUDT5 (Homo sapiens, UniProt Q9UKK9). As to the kind of experiment: NUDT5 inhibitor activity by malachite green reporter assay. Type of test: biochemical. The conditions noted are these: 6 nM NUDT5, 50 μM ADP-Ribose, 15 minutes at room temperature. The method, boiled down: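 Coupled ADP-ribose hydrolysis in 10 mM Tris-acetate pH 8.0, 40 mM NaCl, 10 mM Mg acetate, 0.005% Tween-20, 1 mM DTT: 6 nM NUDT5, 50 μM ADP-Ribose, 10 U/ml alkaline phosphatase, 15 min at room temperature. Pi read by malachite green at 630 nm; compounds 100 μM–1.7 nM, 3-fold; IC50 by curve fit.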

Each structure is given as a SMILES string.

For the compound `CCCCN1CCN(c2nc3c(c(=O)n(C)c(=O)n3C)n2Cc2nnc(-c3ccc(Cl)c(Cl)c3)o2)CC1` [Example 16, 8-(4-butylpiperazin-1-yl)-7-{[5-(3,4-dichlorophenyl)-1,3,4-oxadiazol-2-yl]methyl}-1,3-dimethyl-2,3,6,7-tetrahydro-1H-purine-2,6-dione], in test [1], the “nuclear luminescence (nuclear ATP production)” value (shortened to “nuclear luminescence”) is reported as “Strong luminescence”. Besides, in test [2] (Table 3), the IC50 came to 53.8 nM. Turning to `Cn1c(=O)c2c(nc(N3CCNCC3)n2Cc2nnc(-c3ccc(Cl)c(Cl)c3)o2)n(C)c1=O` [Example 19, 7-{[5-(3,4-dichlorophenyl)-1,3,4-oxadiazol-2-yl]methyl}-1,3-dimethyl-8-(piperazin-1-yl)-2,3,6,7-tetrahydro-1H-purine-2,6-dione], the “nuclear luminescence” value in test [1] was “reduced nuclear luminescence”. Further, the IC50 in test [2] (Table 3) was 29.1 nM.

For `CCN1CCN(c2nc3c(c(=O)n(C)c(=O)n3C)n2Cc2nnc(-c3ccc(Cl)c(Cl)c3)o2)CC1` [Example 17, 7-{[5-(3,4-dichlorophenyl)-1,3,4-oxadiazol-2-yl]methyl}-8-(4-ethylpiperazin-1-yl)-1,3-dimethyl-2,3,6,7-tetrahydro-1H-purine-2,6-dione], in test [1], the “nuclear luminescence” value is listed as “Strong luminescence”. Moreover, the 50% inhibitory concentration (IC50) in test [2] (Table 3) was determined as 39 nM. Consider `COc1cc(-c2nnc(Cn3c(N4CCNCC4)nc4c3c(=O)n(C)c(=O)n4C)o2)ccc1Cl` [Example 117, 7-{[5-(4-chloro-3-methoxyphenyl)-1,3,4-oxadiazol-2-yl]methyl}-1,3-dimethyl-8-(piperazin-1-yl)-2,3,6,7-tetrahydro-1H-purine-2,6-dione], for which the IC50 in test [2] (Table 4) is 64.2 nM. On the same count and under the same terms, in the case of `Cn1c(=O)c2c(nc(Cl)n2Cc2nnc(-c3cccnc3)o2)n(C)c1=O` [Example 94, 8-chloro-1,3-dimethyl-7-{[5-(pyridin-3-yl)-1,3,4-oxadiazol-2-yl]methyl}-2,3,6,7-tetrahydro-1H-purine-2,6-dione] it was 6910 nM. As to `Cn1c(=O)c2c(nc(N3CCC(O)CC3)n2Cc2nnc(-c3ccc(Cl)c(Cl)c3)o2)n(C)c1=O` [Example 37, 7-{[5-(3,4-dichlorophenyl)-1,3,4-oxadiazol-2-yl]methyl}-8-(4-hydroxypiperidin-1-yl)-1,3-dimethyl-2,3,6,7-tetrahydro-1H-purine-2,6-dione], the IC50 in test [2] (Table 3) is 19.8 nM.

In the case of `Cc1cc(-c2nnc(Cn3c(Cl)nc4c3c(=O)n(C)c(=O)n4C)o2)ccc1Cl` [Example 97, 8-chloro-7-{[5-(4-chloro-3-methylphenyl)-1,3,4-oxadiazol-2-yl]methyl}-1,3-dimethyl-2,3,6,7-tetrahydro-1H-purine-2,6-dione], the IC50 in test [2] (Table 4) is 64.8 nM.

Source of the values: patent US20210128566A1, “NOVEL FUNCTIONALIZED PURINE-2,6-DIONES AND THEIR USE IN MEDICINE” (THOMAS HELLEDAYS STIFTELSE FÖR MEDICINSK FORSKNING, priority 2017, published 2021).
